Measured values taken from US6737383B1, “Herbicidal oxadiazolidines” (priority 1999, dated 2004).

Key:
[1] = test system: crabgrass; assay: Test B pre/postemergence crabgrass; format: in vivo, Digitaria sanguinalis
Procedure, shortened: (§1)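 Test chemicals in a non-phytotoxic solvent mixture with surfactant were sprayed preemergence onto planted seeds and postemergence onto plants 2 to 18 cm tall (1- to 4-leaf stage). After twelve to sixteen days in a greenhouse, injury was visually rated against untreated controls from 0 (no effect) to 10 (complete control).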

[2] = test system: bamyardgrass; assay: Test B flood test barnyardgrass; format: in vivo, Echinochloa crus-galli
Procedure, shortened: (§2)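 Plants were grown to the 2-leaf stage before treatment with test chemical, then held in a greenhouse for twelve to sixteen days. Injury was visually rated against untreated controls on a 0–10 scale, where 0 is no effect and 10 is complete control.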

[3] = test system: wild oat; assay: Test B pre/postemergence wild oat; format: in vivo, Avena fatua
Procedure, shortened: as §1

[4] = test system: rice; assay: Test B flood test rice; format: in vivo, Oryza sativa
Procedure, shortened: as §2

[5] = test system: bedstraw; assay: Test B pre/postemergence bedstraw; format: in vivo, Galium aparine
Procedure, shortened: as §1

[6] = test system: surinam grass; assay: Test B pre/postemergence surinam grass; format: in vivo, Brachiaria decumbens
Procedure, shortened: as §1

[7] = test system: velvetleaf; assay: Test B pre/postemergence velvetleaf; format: in vivo, Abutilon theophrasti
Procedure, shortened: as §1

[8] = test system: sugar beet; assay: Test B pre/postemergence sugar beet; format: in vivo, Beta vulgaris
Procedure, shortened: as §1

[9] = test system: smallflower flatsedge; assay: Test B flood test smallflower flatsedge; format: in vivo, Cyperus difformis
Procedure, shortened: as §2

[10] = test system: morningglory; assay: Test B pre/postemergence morningglory; format: in vivo, Ipomoea hederacea
Procedure, shortened: as §1

[11] = test system: soybean; assay: Test B pre/postemergence soybean; format: in vivo, Glycine max
Procedure, shortened: as §1

[12] = test system: cocklebur; assay: Test B pre/postemergence cocklebur; format: in vivo, Xanthium strumarium
Procedure, shortened: as §1

[13] = test system: pigweed; assay: Test B pre/postemergence pigweed; format: in vivo, Amaranthus retroflexus
Procedure, shortened: as §1

[14] = test system: rape; assay: Test B pre/postemergence rape; format: in vivo, Brassica napus
Procedure, shortened: as §1

[15] = test system: duck salad; assay: Test B flood test duck salad; format: in vivo, Heteranthera limosa
Procedure, shortened: as §2

[16] = test system: corn; assay: Test B pre/postemergence corn; format: in vivo, Zea mays
Procedure, shortened: as §1

[17] = Postemergence, Rate 250 g/ha, scale 0 to 10, 0 no effect, 10 complete control
[18] = Postemergence, Rate 1000 g/ha, scale 0 to 10 (0 no effect, 10 complete control)
[19] = Preemergence, Rate 125 g/ha, scale 0 to 10 (0 no effect, 10 complete control)
[20] = Preemergence, Rate 250 g/ha, scale of 0 to 10 where 0 is no effect and 10 is complete control
[21] = Preemergence, Rate 500 g/ha, scale 0 (no effect) to 10 (complete control)
[22] = Rate 125 g/ha, Postemergence, scale 0 to 10, 0 no effect, 10 complete control
[23] = Rate 500 g/ha, Postemergence, 0 to 10 scale (0 no effect, 10 complete control)
[24] = Rate 1000 g/ha, Preemergence, scale 0 to 10 (0 no effect, 10 complete control)
[25] = Rate 125 g/ha, Postemergence section (flood test species), scale 0 to 10, 0 no effect, 10 complete control
[26] = Rate 500 g/ha, Postemergence section of Table B, 0 to 10 scale (0 no effect, 10 complete control)
[27] = flood test, listed under Postemergence, Rate 250 g/ha, scale 0 to 10, 0 no effect, 10 complete control

**Q.** `CCN(CC)C(=O)n1oc(=O)n(-c2c(C)cccc2C)c1=O` [Compound 2] was tested. Which “Crabgrass plant response rating” value [1, 17] did it give?
**A.** 0

**Q.** And the “Crabgrass plant response rating” value [1, 18]?
**A.** 4

**Q.** And the “Plant response rating, Crabgrass” value [1, 19]?
**A.** 0

**Q.** What about the “Plant response rating, Crabgrass” value [1, 20] of the same compound?
**A.** 0

**Q.** What about the “Crabgrass plant response rating” value [1, 21] of the same compound?
**A.** 0

**Q.** And the “Crabgrass plant response rating” value [1, 22]?
**A.** 0

**Q.** And the “Crabgrass plant response rating” value [1, 23]?
**A.** 0

**Q.** And the “Plant response rating, Crabgrass” value [1, 24]?
**A.** 6

**Q.** What about the “Barnyardgrass plant response rating” value [2, 18] of the same compound?
**A.** 0

**Q.** And the “Barnyardgrass plant response rating” value [2, 25]?
**A.** 0

**Q.** What about the “Barnyardgrass plant response rating” value [2, 26] of the same compound?
**A.** 0

**Q.** And the “Barnyardgrass plant response rating” value [2, 27]?
**A.** 0

**Q.** What about the “Wild oats plant response rating” value [3, 17] of the same compound?
**A.** 0

**Q.** What about the “Wild oats plant response rating” value [3, 18] of the same compound?
**A.** 0

**Q.** What about the “Plant response rating, Wild oats” value [3, 19] of the same compound?
**A.** 0

**Q.** And the “Plant response rating, Wild oats” value [3, 20]?
**A.** 0

**Q.** What about the “Wild oats plant response rating” value [3, 21] of the same compound?
**A.** 0

**Q.** And the “Wild oats plant response rating” value [3, 22]?
**A.** 0

**Q.** And the “Plant response rating, Wild oats” value [3, 24]?
**A.** 4

**Q.** What about the “Rice plant response rating” value [4, 18] of the same compound?
**A.** 0

**Q.** What about the “Rice plant response rating” value [4, 25] of the same compound?
**A.** 0

**Q.** What about the “Rice plant response rating” value [4, 26] of the same compound?
**A.** 0

**Q.** And the “Rice plant response rating” value [4, 27]?
**A.** 0

**Q.** And the “Bedstraw plant response rating” value [5, 17]?
**A.** 0

**Q.** What about the “Bedstraw plant response rating” value [5, 18] of the same compound?
**A.** 0

**Q.** What about the “Plant response rating, Bedstraw” value [5, 19] of the same compound?
**A.** 0

**Q.** What about the “Plant response rating, Bedstraw” value [5, 20] of the same compound?
**A.** 0

**Q.** And the “Bedstraw plant response rating” value [5, 21]?
**A.** 0

**Q.** And the “Bedstraw plant response rating” value [5, 22]?
**A.** 0

**Q.** What about the “Bedstraw plant response rating” value [5, 23] of the same compound?
**A.** 0

**Q.** And the “Plant response rating, Bedstraw” value [5, 24]?
**A.** 0

**Q.** And the “B. signalgrass plant response rating” value [6, 17]?
**A.** 0

**Q.** And the “B. signalgrass plant response rating” value [6, 18]?
**A.** 2

**Q.** And the “Plant response rating, B. signalgrass” value [6, 19]?
**A.** 0

**Q.** What about the “Plant response rating, B. signalgrass” value [6, 20] of the same compound?
**A.** 0

**Q.** And the “B. signalgrass plant response rating” value [6, 21]?
**A.** 0

**Q.** And the “B. signalgrass plant response rating” value [6, 22]?
**A.** 0

**Q.** And the “B. signalgrass plant response rating” value [6, 23]?
**A.** 0

**Q.** What about the “Plant response rating, B. signalgrass” value [6, 24] of the same compound?
**A.** 6

**Q.** What about the “Velvetleaf plant response rating” value [7, 17] of the same compound?
**A.** 0

**Q.** And the “Velvetleaf plant response rating” value [7, 18]?
**A.** 0

**Q.** And the “Plant response rating, Velvetleaf” value [7, 19]?
**A.** 0

**Q.** What about the “Plant response rating, Velvetleaf” value [7, 20] of the same compound?
**A.** 0

**Q.** What about the “Velvetleaf plant response rating” value [7, 21] of the same compound?
**A.** 0

**Q.** And the “Velvetleaf plant response rating” value [7, 22]?
**A.** 0

**Q.** And the “Plant response rating, Velvetleaf” value [7, 24]?
**A.** 2

**Q.** What about the “Sugarbeets plant response rating” value [8, 17] of the same compound?
**A.** 0

**Q.** What about the “Sugarbeets plant response rating” value [8, 18] of the same compound?
**A.** 0

**Q.** What about the “Plant response rating, Sugarbeets” value [8, 19] of the same compound?
**A.** 0

**Q.** And the “Plant response rating, Sugarbeets” value [8, 20]?
**A.** 0

**Q.** And the “Sugarbeets plant response rating” value [8, 21]?
**A.** 0

**Q.** And the “Sugarbeets plant response rating” value [8, 22]?
**A.** 0

**Q.** And the “Plant response rating, Sugarbeets” value [8, 24]?
**A.** 0

**Q.** And the “S. Flatsedge plant response rating” value [9, 18]?
**A.** 0

**Q.** What about the “S. Flatsedge plant response rating” value [9, 25] of the same compound?
**A.** 0

**Q.** What about the “S. Flatsedge plant response rating” value [9, 27] of the same compound?
**A.** 0

**Q.** And the “Morningglory plant response rating” value [10, 17]?
**A.** 0

**Q.** What about the “Morningglory plant response rating” value [10, 18] of the same compound?
**A.** 5

**Q.** What about the “Plant response rating, Morningglory” value [10, 19] of the same compound?
**A.** 0

**Q.** And the “Plant response rating, Morningglory” value [10, 20]?
**A.** 0

**Q.** And the “Morningglory plant response rating” value [10, 21]?
**A.** 0

**Q.** What about the “Morningglory plant response rating” value [10, 22] of the same compound?
**A.** 0

**Q.** What about the “Morningglory plant response rating” value [10, 23] of the same compound?
**A.** 0

**Q.** And the “Plant response rating, Morningglory” value [10, 24]?
**A.** 0

**Q.** What about the “Soybean plant response rating” value [11, 17] of the same compound?
**A.** 1

**Q.** What about the “Soybean plant response rating” value [11, 18] of the same compound?
**A.** 4

**Q.** What about the “Plant response rating, Soybean” value [11, 19] of the same compound?
**A.** 0

**Q.** What about the “Plant response rating, Soybean” value [11, 20] of the same compound?
**A.** 0

**Q.** And the “Soybean plant response rating” value [11, 21]?
**A.** 0

**Q.** And the “Soybean plant response rating” value [11, 22]?
**A.** 0

**Q.** And the “Plant response rating, Soybean” value [11, 24]?
**A.** 3

**Q.** What about the “Cocklebur plant response rating” value [12, 17] of the same compound?
**A.** 0

**Q.** And the “Cocklebur plant response rating” value [12, 18]?
**A.** 0

**Q.** And the “Plant response rating, Cocklebur” value [12, 19]?
**A.** 0

**Q.** And the “Plant response rating, Cocklebur” value [12, 20]?
**A.** 0

**Q.** What about the “Cocklebur plant response rating” value [12, 21] of the same compound?
**A.** 0

**Q.** What about the “Cocklebur plant response rating” value [12, 22] of the same compound?
**A.** 0

**Q.** And the “Cocklebur plant response rating” value [12, 23]?
**A.** 0

**Q.** And the “Redroot pigweed plant response rating” value [13, 17]?
**A.** 0

**Q.** And the “Redroot pigweed plant response rating” value [13, 18]?
**A.** 0

**Q.** What about the “Plant response rating, Redroot pigweed” value [13, 19] of the same compound?
**A.** 0

**Q.** And the “Plant response rating, Redroot pigweed” value [13, 20]?
**A.** 0

**Q.** And the “Redroot pigweed plant response rating” value [13, 21]?
**A.** 0

**Q.** And the “Redroot pigweed plant response rating” value [13, 22]?
**A.** 0

**Q.** And the “Redroot pigweed plant response rating” value [13, 23]?
**A.** 0

**Q.** And the “Plant response rating, Redroot pigweed” value [13, 24]?
**A.** 0

**Q.** And the “Rape plant response rating” value [14, 17]?
**A.** 0

**Q.** And the “Rape plant response rating” value [14, 18]?
**A.** 0

**Q.** And the “Plant response rating, Rape” value [14, 19]?
**A.** 0

**Q.** What about the “Plant response rating, Rape” value [14, 20] of the same compound?
**A.** 0

**Q.** And the “Rape plant response rating” value [14, 21]?
**A.** 0

**Q.** And the “Rape plant response rating” value [14, 22]?
**A.** 0

**Q.** What about the “Rape plant response rating” value [14, 23] of the same compound?
**A.** 0

**Q.** What about the “Plant response rating, Rape” value [14, 24] of the same compound?
**A.** 0

**Q.** What about the “Ducksalad plant response rating” value [15, 18] of the same compound?
**A.** 0

**Q.** And the “Ducksalad plant response rating” value [15, 25]?
**A.** 0

**Q.** What about the “Ducksalad plant response rating” value [15, 26] of the same compound?
**A.** 0

**Q.** And the “Ducksalad plant response rating” value [15, 27]?
**A.** 0

**Q.** And the “Corn plant response rating” value [16, 17]?
**A.** 3

**Q.** And the “Corn plant response rating” value [16, 18]?
**A.** 8

**Q.** What about the “Plant response rating, Corn” value [16, 19] of the same compound?
**A.** 4

**Q.** What about the “Plant response rating, Corn” value [16, 20] of the same compound?
**A.** 6

**Q.** And the “Corn plant response rating” value [16, 21]?
**A.** 7

**Q.** What about the “Corn plant response rating” value [16, 22] of the same compound?
**A.** 0

**Q.** What about the “Corn plant response rating” value [16, 23] of the same compound?
**A.** 6

**Q.** And the “Plant response rating, Corn” value [16, 24]?
**A.** 8
